From article PMC10272835, “Exploration of T cell immune responses by expression of a dominant-negative SHP1 and SHP2” (Frontiers in Immunology, 2023)

Assays:
[1] = test system: Skov3-GD2, H446, CHLA255 cells; assay: Target cell killing after IFNγ treatment; type: cell-based; settings: 100ng/ml IFNγ 24 hours; E:T 1:1, 48 hours (Skov3-GD2) or 96 hours (H446, CHLA255)
Protocol: (§1) SupT1 Nalm6 Raji Skov3 CHLA H446
(§2) Supplementary Figure 4: Effect of endogenous PDL1: A) Tumor cell lines were treated with […]
(§3) for PDL1 expression. B-D) The indicated tumor cell lines were treated with 100ng/ml IFNγ for 24 hours or left untreated following which 2x10^5 tumor cells were co-cultured with the indicated CAR T cells at an effector:target ratio of 1:1 for 48 hours (Skov3-GD2) or 96 hours (H446, CHLA255) and tumor cell killing assessed by flow cytometry and normalised to respective co-cultures with non-transduced (NT) T cells (100%). Points represent individual […]

[2] = test system: tumor cell lines (SupT1, Nalm6, Raji, Skov3, CHLA, H446); assay: Upregulation of endogenous PDL1 by IFNγ; type: cell-based; settings: IFNγ 10-400 ng/ml, 24 hours; flow cytometry
Protocol: In order to assess the effect of upregulation of endogenous PDL1 on tumour cells, cell lines were incubated for 24 hours with increasing amounts of IFNγ (10, 20, 40, 60, 80, 100, 200, 400 ng/ml) and PDL1 levels were assessed by flow cytometry.
as §1, §2, §3

SupT1-GD2-PDL1 cells [3] = assay: CAR T cytotoxicity, dSHP2 versus SHP2 knock-out; type: cell-based; settings: GD2 CAR alongside PD1
Protocol: (§4) Transduced T cells were depleted of CD56 cells using the EasySep Human CD56 positive selection kit (Stemcell Technologies; 17855) and rested for 24 hours. Transduced cells were co-cultured with target cells at the indicated effector: target (E:T) ratios with target cells remaining constant at the indicated number of target cells/co-culture. At the end of the co-culture period target cells were enumerated by flow cytometry and cytotoxicity calculated as a percentage of the number of target cells recovered from co-cultures with non-transduced (NT) T cells.
(§5) Expression of the SHP2 (PTPN11) gene was disrupted by Cas9-mediated indel formation. For each sgRNA, 2 samples of 5x10^6 PBMCs were nucleofected in […] of P3 buffer (Lonza; V4XP-3024) with 125 pmol of Alt-R Sp HiFi Cas 9 nuclease v3 (IDT; 108210621) complexed with 187.5 pmol of the PTPN11 sgRNA ([…]) or a non-targeting sgRNA ([…]; Synthego) using pulse code EH-115. Complexing of Cas9 and the sgRNA was carried out at ambient temperature for 10 minutes prior to nucleofection. […] PBMCs were transduced with retroviral constructs 24 hours after nucleofection. PBMCs were collected for genotyping, Western blotting and functional assessment 6 days after nucleofection.
Supplementary Figure 5: Comparison of dSHP2 expression with genomic excision of SHP2. […]

SHP2 protein = assay: Western blot of SHP2 after gene disruption; type: cell-based; settings: after 6 days, 4 donors
Protocol: as §5
Cells were stimulated as indicated then 0.5x10^6 cells were harvested and pelleted at 400xg for 2 minutes. The pellets were washed with ice-cold PBS, centrifuged as before and lysed in 50μl of 1x RIPA buffer (Millipore) supplemented with 1x protease and phosphatase inhibitor (Abcam). The cells were incubated on ice for 15 minutes, vortexed and incubated for further 15 minutes. The lysate was clarified by centrifuging the cells at 13000xg for 10 minutes at 4°C, protein concentration was determined using the BCA Protein assay Kit (Pierce) and stored at -80°C until use. Prior to gel electrophoresis lysates were mixed with NuPAGE™ LDS Sample Buffer (4X) (Invitrogen™) and heated at 95°C for 10 minutes. […]

SHP2 (PTPN11) gene = assay: SHP2 gene disruption (ICE); type: cell-based; settings: Cas9 RNP nucleofection of T cells, after 6 days; 4 donors
Protocol: as §5
Genomic DNA was extracted from PBMCs using the GenElute Blood Genomic DNA Kit (Sigma; NA2010) according to the manufacturer’s instructions. The sequence flanking the SHP2 sgRNA target site was amplified by PCR from 100 ng of genomic DNA using Q5 DNA polymerase (NEB; M0491L) and the primers, SHP2_forward 5’-[…]-3’ and SHP2_reverse 5’-[…]-3’ (IDT). The PCR products were Sanger sequenced (Source Bioscience) and indel formation and knockout efficiencies determined by ICE (Synthego), comparing SHP2-edited and non-target-edited sequences to an unedited control.

[4] = test system: CAR T cells with SupT1-GD2-PDL1 target cells; assay: CAR T proliferation, dSHP2 versus Pembrolizumab; type: cell-based; settings: Pembrolizumab 2.5, 5, 10 µg/mL, E:T 1:4, 5 days
Protocol: PBMCs were labelled with Cell Trace Violet (CTV) according to manufacturer’s instructions (ThermoFisher Scientific; C34557) and cultured with 0.5x10^5 target cells at 1:1 E:T ratio for 96 hours. Numbers of CD3^+ RQR8+ T cells and CTV MFI were assessed by flow cytometry.
(§6) Supplementary Figure 6: Comparison of dSHP2 with Pembrolizumab. A) T cells expressing RQR8 and the GD2 CAR alone or in combination with PD1 and/or dSHP2 were incubated with 1x10^5 SupT1 cells lacking antigen expression (SupT1-NT) or engineered to express GD2 alone (SupT1-GD2) or in the presence of PDL1 (SupT1-GD2-PDL1) at an effector:target ratio of 1:8 for 72 hours. Pembrolizumab was included in co-cultures with T cells expressing PD1 and the GD2 CAR at the indicated concentrations. Surviving target cells were enumerated and normalized to the respective co-cultures with non-transduced T cells (100%). B) Supernatants from co-cultures in (A) were analyzed for IFNγ by ELISA. C-D) T cells were labelled with Cell Trace Violet and co-cultured with 2x10^5 SupT1 target cells at an E:T ratio of 1:4 for 5 days and CAR T cells enumerated. Bars represent the mean of 3-6 biologically independent replicates. […]

[5] = test system: SupT1-GD2-PDL1 target cells; assay: IFNγ release, dSHP2 versus Pembrolizumab; type: cell-based; settings: GD2 CAR; Pembrolizumab 2.5, 5, 10 µg/mL; E:T 1:8, 72 hours
Protocol: as §6

SupT1-GD2-PDL1 cells [6] = assay: CAR T cytotoxicity, dSHP2 versus Pembrolizumab; type: cell-based; settings: Pembrolizumab 2.5, 5, 10 µg/mL, E:T 1:8, 72 hours, 3-6 replicates
Protocol: as §4
as §6, with “enumerated.” for “enumerated. Bars represent the mean of 3-6 biologically independent replicates.”

SupT1-GD2 cells = assay: Effect of inhibitory ligand expression on GD2 CAR cytotoxicity; type: cell-based; settings: ligand expressed on SupT1-GD2, E:T 1:4 and 1:8, 6 days
Protocol: as §4
Figure 3 Interaction of dSHP2 with immunoinhibitory T cell receptors. (A-E) Binding of dSHP2 to phosphorylated peptides derived from the endodomains of immunoinhibitory T cell receptors. Plates were coated with phosphorylated or non-phosphorylated peptide at the indicated concentration and the purified, His-tagged SH2 domains of dSHP2 were allowed to bind overnight. Binding was measured through detection of the His tag. (F) Effect of inhibitory ligand expression on target cells on CAR T cytotoxicity. […] Supernatants were harvested from these co-cultures and levels of IFNγ measured by ELISA (I). […] Statistical significance was measured by two-way ANOVA. […]

SHP2 = test system: SHP2; design: method as in PMID 30972278; settings: following activation; ref [29]; cited from earlier work

IFNγ: exogenous IFNγ used to upregulate PDL1 on tumor cell lines
target cell killing with exogenous IFNγ [1]: increased target cell killing | PDL1 upregulation [2]: did upregulate PDL1 in some cell lines

SHP2-directed sgRNA: PTPN11 sgRNA (GAGACUUCACACUUUCCGUU) complexed with Cas9 nuclease (complexed with Cas9 nuclease, further chemistry not given here)
relief of PDL1-mediated inhibition of CAR T cells (SupT1-GD2-PDL1 cells [3]): substantially less | SHP2 protein level (SHP2 protein): significant decrease in SHP2 protein | indel formation (SHP2 (PTPN11) gene): greater than 80%

pembrolizumab: antibody blocking PD1
restoration of proliferation, compared with Pembrolizumab [4]: comparable effects | restoration of IFNγ release, compared with Pembrolizumab [5]: slightly greater restoration of IFNγ secretion at the highest concentration | restoration of killing, compared with Pembrolizumab (SupT1-GD2-PDL1 cells [6]): comparable effects

CD80: inhibitory ligand of CTLA4 expressed on SupT1-GD2 cells
effect of target cell ligand expression on CAR T cytotoxicity (SupT1-GD2 cells): mild enhancement of CAR T cytotoxicity

CC1(N)CCN(c2cnc(-c3cccc(Cl)c3Cl)c(N)n2)CC1 [SHP099]
effect on central memory population, effector molecule expression (SHP2): increased central memory population and increased expression of granzyme B, perforin, IFNγ, TNFα and FasL | effect on proliferation or viability (SHP2): no effect on proliferation or viability
